According to patent publication US10920265B2, “Compounds and methods for detection of enzymes that remove methyl succinyl groups from epsilon-amino lysine moieties” (Enzo Life Sciences, Inc., priority 2011, dated 2021):
Values belong to the molecule of their own block, whether it stands above or below them.

What was measured:
Type in all cases: biochemical
[1] = molecular target: T1, HDAC2 (Homo sapiens, UniProt Q92769); test: HDAC activity with fluorogenic lysyl substrates; conditions: 50 μM substrate
T1 construct: purchased ENZO Life Sciences BML-SE500
T1 sequence (Q92769 whole entry): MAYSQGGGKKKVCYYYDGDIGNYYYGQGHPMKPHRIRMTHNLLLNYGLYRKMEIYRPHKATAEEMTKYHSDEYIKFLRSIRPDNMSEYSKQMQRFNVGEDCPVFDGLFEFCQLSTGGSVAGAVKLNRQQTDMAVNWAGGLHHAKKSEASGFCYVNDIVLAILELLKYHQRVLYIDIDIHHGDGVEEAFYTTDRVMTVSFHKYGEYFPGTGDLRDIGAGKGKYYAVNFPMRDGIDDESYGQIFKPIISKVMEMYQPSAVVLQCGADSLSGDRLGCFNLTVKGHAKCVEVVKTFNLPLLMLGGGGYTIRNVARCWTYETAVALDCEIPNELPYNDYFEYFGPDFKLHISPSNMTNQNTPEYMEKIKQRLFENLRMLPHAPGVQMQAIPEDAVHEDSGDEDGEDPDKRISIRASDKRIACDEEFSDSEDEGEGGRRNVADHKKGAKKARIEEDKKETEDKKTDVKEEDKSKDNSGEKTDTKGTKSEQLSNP
Method: The Ac-Lys(Succ.)-AMC substrate was tested for activity with recombinant preparations of human HDACs 1-11, SIRTs 1-4, 6 and 7, a complex of HDAC3 with a fragment of the activating protein NCOR1 and with HeLa nuclear extract, a rich source of active HDACs in their native multiprotein complexes.
Enzyme and extract catalog products obtained from ENZO Life Sciences included: HDAC1 (Cat. # BML-SE456), HDAC2 (Cat. # BML-SE500), HDAC3 (Cat. # BML-SE507), HDAC3/NCOR1 Complex (Cat. # BML-SE515), HDAC6 (Cat. # BML-SE508), HDAC8 (Cat. # BML-SE145), HDAC10 (Cat. # BML-SE559), HDAC11 (Cat. # BML-SE560), SIRT1 (Cat. # BML-SE239), SIRT2 (Cat. # BML-SE251), SIRT3 (Cat. # BML-SE270), SIRT5 (Cat. # BML-SE555), HeLa Nuclear Extract (Cat. # BML-KI140), Trypsin (“Fluor de Lys Developer”, 80 mg/ml bovine trypsin in 1 mM HCl, Cat. # BML-KI105 or “Fluor de Lys Developer II”, 80 mg/ml bovine trypsin in 1 mM HCl, Cat. # BML-KI176). […] Enzymes obtained from BPS Bioscience, San Diego, Calif. included: human recombinants SIRT4 (Cat. #50015), SIRT6 (Cat. #50017), SIRT7 (Cat. #50018). HeLa whole cell extract was obtained from HeLa S3 cells (American Type Culture Collection) grown in a medium of MEM/10% fetal bovine serum (FBS) as follows: 1) 9×10^6 cells were suspended by trypsinization, followed by a phosphate buffered saline (PBS) rinse and addition of MEM/10% FBS (1.5 mL) to eliminate trypsin before transfer to a 15 mL conical tube; 2) cells were sedimented by a low speed centrifugation, gently resuspended in PBS and sedimented again and supernatant removed; 3) lysis was induced by resuspension in 0.8 mL 50 mM Tris/HCl, pH 8.0 with the non-denaturing detergent NP-40 (0.5%), placement on ice and brief vortexing every 5 min. for 30 min.; 4) 100 μl of a concentrated salt solution in the same buffer was added in order to bring the final buffer composition to 50 mM Tris/C1, pH 8.0, 137 mM NaCl, 2.7 mM KCl, 1 mM MgCl2, 0.5% NP-40; 5) particulate matter was cleared by centrifugation and the cleared lysate supernatant transferred to a 1.5 mL Eppendorf tube and stored on ice until use in activity assays.
(§1) Assays were performed at 37° C., according to the manufacturer's instructions for the “SIRT1 Fluorometric Drug Discovery Kit” from Enzo Life Sciences (ELS) (Cat. # BML-AK555), with exceptions described as follows. Where indicated in figures and text, SIRT1 enzyme was replaced with another enzyme or extract and the “Fluor de Lys-SIRT1 Substrate” (Ac-Arg-His-Lys-Lys(Ac)-AMC; ELS Cat. # BML-KI-177) was replaced with another acetylated, succinylated or trifluoroacetylated substrate.

[2] = molecular target: T2, SIRT5 (Homo sapiens, UniProt Q9NXA8); test: SIRT5 desuccinylation/deacetylation of fluorogenic lysyl substrates, trypsin developer; parameters: purchased Enzo Life Sciences BML-SE555
T2 sequence (Q9NXA8 37-310): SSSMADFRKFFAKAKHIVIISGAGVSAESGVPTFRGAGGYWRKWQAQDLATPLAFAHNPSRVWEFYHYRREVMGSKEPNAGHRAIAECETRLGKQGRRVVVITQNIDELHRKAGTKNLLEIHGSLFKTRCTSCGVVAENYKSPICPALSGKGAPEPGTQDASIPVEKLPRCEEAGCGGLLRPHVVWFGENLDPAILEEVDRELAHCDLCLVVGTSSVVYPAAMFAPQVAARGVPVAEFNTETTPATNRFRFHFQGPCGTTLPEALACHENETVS
Method: FIG. 3 is graphs showing that SIRT5 catalyzes NAD^+-dependent desuccinylation of Ac-Lys(ε-succinyl)-AMC far more efficiently than NAD^+-dependent deacetylation of Ac-Arg-His-Lys-Lys(ε-acetyl)-AMC. Fifty μl reactions in Assay Buffer (50 mM Tris/HCl, pH 8.0, 137 mM NaCl, 2.7 mM KCl, 1 mM MgCl2, 1 mg/ml BSA) included 50 μM of either Ac-Lys(ε-succinyl)-AMC or Ac-Arg-His-Lys-Lys(ε-acetyl)-AMC, and, where indicated, 500 μM NAD^+ and 5 μg recombinant human SIRT5 (Enzo Life Sciences Cat. # BML-SE555). […] AMC fluorescence was read in a Cytofluor II plate-reading fluorimeter (Perseptive Biosystems) at wavelengths 360 nm (excitation)/460 nm (emission), Gain 54. Data represent the mean of two (No Enzyme) or three (+SIRT5) determinations and error bars the standard deviations. Panels A and B present the same data, but with the +SIRT5/+NAD^+/Ac-Lys(ε-succinyl)-AMC bar omitted from B to show the detail on the remaining bars. Statistically significant differences (Student's t-test) are indicated by asterisks as follows: *: p<0.02 vs. corresponding No Enzyme control; **: p<0.001 vs. corresponding −NAD^+ control; ***: p<3×10^−6 vs. both No Enzyme and −NAD^+ controls.
FIG. 4 is a graph showing that Ac-Lys(Succ.)-AMC enables SIRT5 assay at low enzyme concentrations. Fifty μl reactions in Assay Buffer (50 mM Tris/HCl, pH 8.0, 137 mM NaCl, 2.7 mM KCl, 1 mM MgCl2, 1 mg/ml BSA) included 2 or 10 μM Ac-Lys(ε-succinyl)-AMC, 500 μM NAD^+ and, where indicated, 5 ng recombinant human SIRT5 (Enzo Life Sciences Cat. # BML-SE555). […] AMC fluorescence was read in a Synergy 2 plate-reading fluorimeter (BioTek) at wavelengths 360 nm (excitation)/460 nm (emission), Gain 40. Data represent the mean of two (No Enzyme) or three (5 ng SIRT5) determinations and error bars the standard deviations. Statistically significant differences (Student's t-test) are indicated by asterisks as follows: *: p=0.002; **: p=0.009, each with respect to the corresponding “No SIRT5” samples.
FIG. 5 is graphs showing dependence of SIRT5 initial rate kinetics on the concentrations of Ac-Lys(Succ.)-AMC and Ac-Lys(Ac.)-AMC. Fifty μl desuccinylation or deacetylation reactions were performed as described earlier (FIG. 4), with the indicated concentrations of Ac-Lys(Succ.)-AMC or Ac-Lys(Ac.)-AMC and 1 mM NAD^+, for 20 min. at 37° C. Reactions with Ac-Lys(Succ.)-AMC contained 10 ng SIRT5 and those with Ac-Lys(Ac.)-AMC contained 5 SIRT5. Reactions were stopped and AMC cleaved from deacetylated or desuccinylated substrate by trypsin treatment as described earlier (FIG. 4). AMC fluorescence was read in a Synergy 2 plate-reading fluorimeter (BioTek) at wavelengths 360 nm (excitation)/460 nm (emission), Gain 40. Data represent the mean of the differences of three determinations with enzyme (10 ng or 5 SIRT5) from the mean of two no enzyme samples for each substrate concentration. Error bars are the standard deviations from those means. Fluorescence differences were converted to specific activities (pmol/min/μg) by measuring the fluorescence increase due to the addition a standard solution of AMC (5 μl of a […]).
FIG. 6 is a graph showing the dependence of SIRT5 initial rate kinetics of Ac-Lys(Succ.)-AMC desuccinylation on the concentration of NAD^+. Reaction conditions were as described for FIG. 5 but with a constant Ac-Lys(Succ.)-AMC concentration of 0.5 mM and the indicated concentrations of NAD^+. Data analysis and determination of kinetic parameters were as described (FIG. 5).
FIG. 12 is graphs showing that SIRT5 catalyzes NAD^+-dependent desuccinylation of (Ac-Lys(Succ.))2-R110 far more efficiently than NAD^+-dependent deacetylation of (Ac-Lys(Ac.))2-R110. Fifty μl reactions in Assay Buffer (50 mM Tris/HCl, pH 8.0, 137 mM NaCl, 2.7 mM KCl, 1 mM MgCl2, 1 mg/ml BSA) included 50 μM of either (Ac-Lys(Succ.))2-R110 or (Ac-Lys(Ac.))2-R110, and, where indicated, 500 μM NAD^+ and 5 μg recombinant human SIRT5 (Enzo Life Sciences Cat. # BML-SE555). […]

[3] = molecular target: T3, bovine pancreatic trypsin (Bos taurus, UniProt P00760); test: Trypsin release of AMC from lysyl-AMC compounds; conditions: 1 μM compound, trypsin 2 mg/ml, room temperature
T3 construct: purchased ENZO Life Sciences BML-KI105 or BML-KI176; host or cells: bovine pancreas
T3 sequence (P00760 24-246): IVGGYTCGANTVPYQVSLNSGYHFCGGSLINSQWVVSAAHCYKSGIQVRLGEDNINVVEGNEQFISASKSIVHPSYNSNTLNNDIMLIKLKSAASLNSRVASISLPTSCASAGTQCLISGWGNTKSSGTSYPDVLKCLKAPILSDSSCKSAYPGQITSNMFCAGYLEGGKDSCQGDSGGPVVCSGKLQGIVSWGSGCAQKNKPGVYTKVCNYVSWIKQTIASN
Method: FIG. 2 is a graph showing that trypsin treatment releases fluorescent AMC from Ac-Lys-AMC but not Ac-Lys(Succinyl)-AMC. Samples (100 μl) of 1 μM Ac-Lys-AMC and 1 μM Ac-Lys(Succinyl)-AMC in a buffered solution (50 mM Tris/HCl, pH 8.0, 137 mM NaCl, 2.7 mM KCl, 1 mM MgCl2) were treated with bovine pancreatic trypsin (2 mg/ml) for the indicated times at room temperature. Samples were in the wells of a 96-well, ½-area white microplate and fluorescence was measured at 1 min. intervals at the excitation and emission wavelengths for free AMC (Excitation: 360 nm; Emission: 460 nm) in a Synergy 2 microplate reading fluorimeter (BioTek), Gain 40. The data points at 0 min. represent the fluorescence of equivalent 1 μM Ac-Lys(Succ.)-AMC and 1 μM Ac-Lys-AMC samples in the absence of trypsin.
As noted in the Background of the Invention section above, the protease trypsin catalyzes the hydrolytic cleavage of amide bonds on the carboxyl side of unmodified lysine residues. Hydrolytic cleavage of lysyl amide bonds with AMC or rhodamine 110 (dye components of Compounds 1 and 2, respectively) releases the free amino forms of the dyes. This elicits an upward shift of the dye's fluorescence emission peak wavelength (bathochromic shift), for example to 460 nm for AMC or 530 nm for rhodamine 110. If succinylation of the ε-amino function of the lysine moieties in compounds such as 1 and 2 renders the amide bond between the carbonyl of lysine and the amino of dye groups such as AMC or rhodamine resistant to trypsin cleavage then, upon desuccinylation, the lysine/dye amide bond would become cleavable by trypsin. Note that removal of a single succinyl group from 2, followed by cleavage of the desuccinylated lysine would yield a compound with a single free amino function, Ac-K(Succ.)-R110. Monoamides of rhodamine 110 also have increased fluorescence emission at 530 nm relative to 2, although they are less fluorescent than rhodamine 110 itself (Liu et al., 1999). Thus, monitoring the fluorescence at the peak wavelength of the amino form of the dye would allow the desuccinylation reaction to be quantified. A schematic for such an assay is depicted for Compound 1 and SIRT5 in FIG. 1. Trypsin treatment (2 mg/ml) elicits an immediate increase in the fluorescence of a solution of Ac-Lys-AMC (Compound 6—FIG. 1) at the excitation and emission wavelengths of free AMC (Ex. 360 nm; Em. 460 nm), with maximum fluorescence achieved in 2 min. or less and ˜⅔ of that maximum occurring in 1 min. (FIG. 2).

[4] = molecular target: T2, SIRT5; test: Inhibition of SIRT5 desuccinylation of Ac-Lys(Succ.)-AMC; parameters: purchased Enzo Life Sciences BML-SE555; conditions: three parameter Hill-Slope model, bottom fixed at 0
Text: Signal development (trypsin treatment) and fluorescence readings were done as described, as were the conversion of fluorescence increases to rates in units of pmol/min/μg (FIG. 5). Data points represent the mean of three determinations and the error bars are the standard deviations from those means. The dose-response curve was derived from a least-squares fit to a three parameter Hill-Slope model (bottom fixed at 0 pmol/min/μg), y=top/(1+(x/IC50)^slope).
Data points represent the mean of three determinations and the error bars are the standard deviations from those means. The dose-response curve was derived from a least-squares fit to a three parameter Hill-Slope model (bottom fixed at 0 pmol/min/μg), y=top/(1+(x/IC50)^slope).
as §1

SMILES: CC(=O)NCCCCC(NC(C)=O)C(=O)Nc1ccc2c(c1)Oc1cc(NC(=O)C(CCCCNC(C)=O)NC(C)=O)ccc1C21OC(=O)c2ccccc21 (stereo not shown) [(Ac-Lys(Ac))2-R110, reference compound]
Activity (pmol/min/μg) [1]: (Ac-Lys(Ac))2-R110/502 pmol/min/μg

SMILES: CC(=O)NC(CCCCNC(=O)CCC(=O)O)C(=O)Nc1ccc2c(c1)Oc1cc(NC(=O)C(CCCCNC(=O)CCC(=O)O)NC(C)=O)ccc1C21OC(=O)c2ccccc21 (stereo not drawn) [Compound 2, N,N′-Bis(α-acetyl-Lysine(ε-succinyl))-rhodamine 110]
SIRT5/NAD^+ dependence of desuccinylation ([2]; 5 μg SIRT5, 50 μM substrate, 500 μM NAD^+, 60 min.): desuccinylated by SIRT5 in a time and NAD^+-dependent manner

SMILES: CC(=O)N[C@@H](CCCCN)C(=O)Nc1ccc2c(C)cc(=O)oc2c1 [Compound 6, N-(α-acetyl-Lysine)-AMC, reference compound]
Fraction of maximum fluorescence at 1 min. [3]: ⅔ | Time to maximum fluorescence on trypsin treatment [3]: ≤ 2 min

Second part, the molecule after the results:

Km ([2]; varied substrate: NAD^+, constant 0.5 mM Ac-Lys(Succ.)-AMC): 360 µM
SMILES: NC(=O)c1ccc[n+]([C@@H]2O[C@H](COP(=O)([O-])OP(=O)(O)OC[C@H]3O[C@@H](n4cnc5c(N)ncnc54)[C@H](O)[C@@H]3O)[C@@H](O)[C@H]2O)c1 [NAD^+]

slope (fitted parameter of dose-response curve) [4]: 0.98 | top (fitted parameter of dose-response curve) [4]: 90.2 pmol/min/µg
SMILES: NC(=O)c1cccnc1 [nicotinamide]
